Source: US9334487B2, “Methods for diagnosing rheumatoid arthritis” (Imperial Innovations Limited, priority 2007, dated 2016)
“Also recorded” adds a separate entry of the source. Bridges are numbered along the chain shown (N, C = ends). Where no end group is shown, it is not given here. [ ]: non-standard residue; d: D form. Cit = NC(=O)NCCC[C@H](N)C(=O)O

Experiments:
[1] = test system: serum IgG of RA patients, disease controls and healthy controls; test: ELISA for IgG antibodies to cyclic α-enolase peptides, UK cohort sera; type: binding, human; details: for % positive, RA (n = 102): UK cohort RA sera; for % positive, RA (n = 102) / % positive, Disease controls (n = 110) / % positive, Healthy controls (n = 92): cut-off OD450 = 0.1; for % positive, Disease controls (n = 110) / % positive, Healthy controls (n = 92) / sensitivity for RA: UK cohort; for IgG antibody levels / reactivity (OD450) in RA sera / sensitivity for RA: 102 RA patients; for IgG antibody levels / reactivity (OD450) in RA sera: OD450 (peptide)-OD450 (background)
Source text: (§1) Serum samples were obtained with informed consent and ethical approval from 102 patients with RA and 92 (or 110 patients for the results generally shown in FIGS. 9 to 16) patients with other arthritidies (including systemic lupus erythematosus (n=32), Sjogrens syndrome (n=31), psoriatic arthritis (n=5), Behçet's syndrome (n=18; FIGS. 9 to 16) and miscellaneous other rheumatic diseases (n=24). 92 control serum samples were obtained from healthy volunteers. An additional cohort of 24 patients with RA undergoing treatment with either methotrexate (MTX) alone (n=13) or methotrexate in combination with Infliximab (INF) (n=11) were collected before treatment as well as 6, 18 and 52 weeks post treatment. Disease activity score (DAS 28), erythrocyte sedimentation rate (ESR) and C-reactive protein (CRP) were measured for each patient at the same time points, i.e. 0, 6, 18 an 52 weeks post treatment. All patients attended the Rheumatology Clinic at Charing Cross Hospital, London. An independent cohort from the US included serum samples from 81 RA patients, taken at baseline in a clinical trial at the Omaha Veterans Affairs Medical Centre, University of Nebraska, USA, and 82 serum samples from healthy volunteers. All RA patients met the American College of Rheumatology (ACR) classification criteria (43).
Fifteen cyclic 15 to 23-mer peptides were synthesised at Cambridge Research Biochemicals (Cleveland, UK). The peptide sequences corresponded to amino acid sequences in human α-enolase (SwissProt accession number P06733) or P. gingivalis enolase (SwissProt accession number AAQ66821), with the addition of cysteine residues at the amino- and carboxy-termini and the exchange of citrulline for arginine residues at certain positions, as shown in Tablet and Table 2 below.
(§2) 96-well plates (Maxisorp; Nunc, Roskilde, Denmark) were coated with α-enolase peptides at 10 μg/ml (diluted in a 50 mM carbonate buffer, pH 9.6), or with carbonate buffer alone, and incubated over night at 4° C. Wells were washed with PBS-Tween (0.05%) and blocked with 2% BSA (diluted in PBS) for 3 hours at room temperature. Sera were diluted 1:50 in RIA-buffer (10 mM Tris, 1% BSA, 350 mM NaCl, 1% Triton-X, 0.5% Na-deoxychlate, 0.1% SDS) supplemented with 10% FCS, added in duplicates and incubated for 1.5 hour at room temperature. Plates were washed as described above and incubated with peroxidase-conjugated mouse anti-human IgG (Hybridoma Reagent Laboratory, Baltimore, USA) (diluted 1:1000 in RIA-buffer, 10% FCS) for 1 hour at room temperature. After a final wash (PBS-Tween, 0.05%), bound antibodies were detected with TMB substrate (KPL, Maryland, USA). The reaction was stopped by the addition of 1M H2SO4 and absorbance measured at 450 nm in a Multiscan Ascent microplate reader (Thermo Labsystems). A control serum was included on all plates to correct for plate-to-plate variation. Background OD450 (wells coated with only carbonate buffer) was subtracted from peptide OD450 for every serum tested. Values above 0.1 were taken as positive. ELISA on the US serum samples were performed in a similar manner, but with 2% BSA in carbonate buffer as background, and with an OD cut-off of 0.2 for positive samples. Anti-CCP antibody status was analysed using the CCP2 kit (Eurodiagnostica, Malmo, Sweden), according to the manufacturer's instructions.

[2] = test system: anti-CEP-1 antibodies in anti-CEP-1 positive RA sera; test: Liquid phase inhibition of binding to CEP-1-coated plates; set-up: species or system human; details: six anti-CEP-1 positive RA sera pre-incubated with 0, 1, 10 and 100 μg/ml peptide
Method: Inhibition experiments were performed in liquid phase on six anti-CEP-1 positive RA serum samples or on solid phase using serum from nine double positive (anti-CEP-1 and CCP positive) RA patients. Sera were either pre-incubated for 2 hours in RIA-buffer containing increasing concentrations (0, 1, 10 and 100 μg/ml) of CEP-1, control peptide 1D, peptide 4, peptide 7, peptide 9 or peptide 11, or pre-absorbed on plates coated with CEP-1, carbonate buffer alone or pre-absorbed on commercial CCP2 plates. To eliminate antigen-antibody complexes, the liquid phase mixtures were centrifuged at 13 000 rpm, for 15 minutes, before the supernatants were transferred to CEP-1-coated plates and assessed as described above Inhibition of binding to CEP-1, for serum samples pre-absorbed to CCP, was calculated in relation to the maximum inhibition, which by definition was set to 100% for samples pre-incubated with CEP-1.

[3] = test system: serum IgG of RA patients and healthy controls (US cohort); test: anti-CEP-1 antibody ELISA, independent US cohort; type: binding, human; details: cut-off 98th percentile of controls
Source text: as §1
as §2, with “ELISA on the US serum samples were performed in a similar manner, but with 2% BSA in carbonate buffer as background, and with an OD cut-off of 0.2 for positive samples.” left out, “instructions. […]” for “instructions.”

Substance: cakynqll-X-ieeelgskac (CAKYNQLL[Cit]IEEELGSKAC; disulfide 1-19 (inferred); listed as Homo sapiens) [Peptide 8, human α-enolase aa 405-421]
- % positive, RA (n = 102) [1]: 7%
- % positive, Disease controls (n = 110) [1]: 4%
- % positive, Healthy controls (n = 92) [1]: 0%

Substance: cekgvply-X-hiadlagnsec (CEKGVPLY[Cit]HIADLAGNSEC; disulfide 1-20 (inferred); listed as Homo sapiens) [Peptide 4, human α-enolase aa 125-142]
- % positive, RA (n = 102) [1]: 16%
- % positive, Disease controls (n = 110) [1]: 2%
- % positive, Healthy controls (n = 92) [1]: 2%
- inhibition of antibody binding to CEP-1-coated plates [2]: no inhibition
- inhibition of antibody binding to CEP-1-coated plates ([2]; listed as peptide 4): did not result in decreased antibody binding

Substance: ciqvvgddltvtnpk-X-iakac (CIQVVGDDLTVTNPK[Cit]IAKAC; disulfide 1-21 (inferred); listed as Homo sapiens) [Peptide 10, human α-enolase aa 313-331]
- % positive, RA (n = 102) [1]: 6%
- % positive, Healthy controls (n = 92) [1]: 1%

Substance: ckfag-X-nf-X-nplakc (CKFAG[Cit]NF[Cit]NPLAKC; disulfide 1-15 (inferred); listed as Homo sapiens) [Peptide 9, human α-enolase aa 422-434]
- % positive, RA (n = 102) [1]: 15%
- % positive, Disease controls (n = 110) [1]: 1%
- % positive, Healthy controls (n = 92) [1]: 1%
- inhibition of antibody binding to CEP-1-coated plates [2]: no inhibition
- inhibition of antibody binding to CEP-1-coated plates ([2]; listed as peptide 9): did not result in decreased antibody binding

Substance: ckiha-R-eifds-R-gnptvec (CKIHAREIFDSRGNPTVEC; listed as Homo sapiens) [Peptide 1D, arginine containing control peptide, aa 5-21]
- IgG antibody levels / reactivity (OD450) in RA sera [1]: low IgG-levels; also recorded: low reactivity
- IgG antibody levels / reactivity (OD450) in RA sera ([1]; listed as arginine-containing control peptide): low degree of reactivity
- IgG antibody levels / reactivity (OD450) in RA sera ([1]; listed as peptide 1D): low IgG-levels
- sensitivity for RA [1]: about 4.9%
- % positive, Disease controls (n = 110) [1]: 2%
- % positive, Healthy controls (n = 92) [1]: 3%
- inhibition of antibody binding to CEP-1-coated plates [2]: did not result in decreased antibody binding; also recorded: no inhibition

Substance: ckiha-R-eifds-X-gnptvec (CKIHAREIFDS[Cit]GNPTVEC; disulfide 1-19 (inferred); listed as Homo sapiens) [Peptide 1B]
- IgG antibody levels / reactivity (OD450) in RA sera [1]: higher antibody levels
- % positive, RA (n = 102) [1]: 40%
- sensitivity for RA [1]: higher sensitivity

Substance: ckiha-X-eifds-R-gnptvec (CKIHA[Cit]EIFDSRGNPTVEC; disulfide 1-19 (inferred); listed as Homo sapiens) [Peptide 1C]
- % positive, RA (n = 102) [1]: 20%
- sensitivity for RA [1]: about 20%

Substance: ckiig-X-eilds-X-gnptvec (CKIIG[Cit]EILDS[Cit]GNPTVEC; disulfide 1-19 (inferred); listed as Homo sapiens) [1A P. gingivalis, P. gingivalis enolase version of CEP-1, X = citrulline]
- % positive, RA (n = 102) [1]: 34%
- % healthy controls positive, US cohort (n=82) [3]: 2%

Substance: cnf-X-eam-X-igaevyhnlknc (CNF[Cit]EAM[Cit]IGAEVYHNLKNC; disulfide 1-20 (inferred); listed as Homo sapiens) [Peptide 5, human α-enolase aa 177-194]
- % positive, RA (n = 102) [1]: 11%
- % positive, Disease controls (n = 110) [1]: 4%
- % positive, Healthy controls (n = 92) [1]: 3%

Substance: cnpk-X-iakavnekscncllc (CNPK[Cit]IAKAVNEKSCNCLLC; also: cyclic via terminal Cys, bond and pairing not given here; listed as Homo sapiens) [Peptide 11, human α-enolase aa 324-341]
- % positive, RA (n = 102) [1]: 18%
- % positive, Healthy controls (n = 92) [1]: 0%
- inhibition of antibody binding to CEP-1-coated plates [2]: no inhibition
- inhibition of antibody binding to CEP-1-coated plates ([2]; listed as peptide 11): did not result in decreased antibody binding

Substance: cvdlftskglf-X-aavpsgc (CVDLFTSKGLF[Cit]AAVPSGC; disulfide 1-19 (inferred); listed as Homo sapiens) [Peptide 2, human α-enolase aa 22-38]
- % positive, RA (n = 102) [1]: 10%
- % positive, Disease controls (n = 110) [1]: 0%
- % positive, Healthy controls (n = 92) [1]: 2%

Substance: cyealel-X-dndkt-X-ymgkgvskc (CYEALEL[Cit]DNDKT[Cit]YMGKGVSKC; disulfide 1-23 (inferred); listed as Homo sapiens) [Peptide 3, human α-enolase aa 44-64]
- % positive, RA (n = 102) [1]: 15%
- % positive, Disease controls (n = 110) [1]: 2%
- % positive, Healthy controls (n = 92) [1]: 0%
